In patent US20230330093A1, “APPLICATION OF NITROGEN-CONTAINING SATURATED HETEROCYCLIC COMPOUND” (SHANGHAI PHARMACEUTICALS HOLDING CO., LTD., priority 2020, published 2023):

Experiment: 4-week safety study: toxicokinetics (plasma AUC0-24h, Cmax)
Format: in vivo, cynomolgus monkeys
Experimental: Blood samples were obtained on day1 and day26 at 0, 0.5, 1.5, 3, 5, 7 and 24 h after administration. On each occasion, approximately 1.0 mL of blood was drawn from the vein and collected into EDTA-K2 anticoagulant tubes. The blood samples were put on ice and then centrifuged (3500 rpm, 5 min) at 4° C. to obtain plasma samples, which were kept frozen at about −80° C. until analysis. Toxicokinetics determination of the compound of Formula I was conducted at the Institute of Materia Medica, Chinese Academy of Sciences (Shanghai, China).

COC(=O)NCCCn1nc([C@@H](C)N(C(=O)[C@H]2CNCCO2)C2CC2)c2ccc(C)nc21 [compound of Formula I]
accumulation (after consecutive 28 days of administration): the accumulation was not apparent
Systemic exposure (plasma AUC0-24h and Cmax of parent compound and main metabolite) vs dose (dose range of 20 to 450 mg/kg): proportionately greater than the magnitude of the dose increments
